Data: patent US8093209B2, “Methods of suppressing microglial activation and systemic inflammatory responses” (Cognosci, Incorporated, priority 2002, dated 2012)
Entries after “also recorded” stand apart in the source; their conditions may differ.

Columns and labels:
[1] = test system: thioglycollate-elicited peritoneal macrophages; assay: [Ca2+]i in Fura-2/AM treated single macrophages, digital imaging microscopy (Example 10); format: cell-based, mouse; settings: for increase in [Ca2+]i levels compared to buffer: macrophage
Description: (§1) Macrophage Harvesting. All experiments involving animals were first approved by the Duke Institutional Animal Care and Use Committee. Pathogen-free female C57BL/6 mice and ApoE deficient mice previously backcrossed 10 times to the C57BL/6 strain were obtained from the Jackson Laboratory (Bar Harbor, Me.). Thioglycollate-elicited peritoneal macrophages were harvested by peritoneal lavage using 10 ml of ice-cold Hanks' balanced salt solution containing 10 mM HEPES and 3.5 mM NaHCO3 (HHBSS), pH 7.4. The macrophages were pelleted by centrifugation at 4° C. at ˜800×g for 10 min and resuspended in RPMI 1640 media supplemented with 25 mM HEPES, 12.5 U/ml penicillin, 6.5 mg/ml streptomycin, and 5% fetal bovine serum.
Measurement of [Ca^2+]i in apoE and peptide treated macrophage. Changes in [Ca^2+]i levels in Fura-2/AM treated single cells were quantified using digital imaging microscopy in accordance with known techniques. Macrophages were plated on glass coverslips sitting in 35 mm Petri dishes at a density of 1.5×10^5 cells/cm^2, and allowed to adhere for 2 h in a humidified 5% CO2 incubator at 37° C. The non-adherent cells were aspirated and the monolayers were washed twice with HHBSS. 4 μM Fura-2/AM was incubated with the cells for thirty min in the dark at room temperature and [Ca^2+]i was subsequently measured using a digital imaging microscope in accordance with known techniques. […] To determine if signaling resulted from ligation of the ligand to LRP, cells were preincubated with a 1000-fold molar excess of RAP or 10 mM NiCl2, both of which inhibit ligand binding to LRP, for 5 min prior to stimulation with apoE or peptide. In experiments in which the involvement of a G protein was assessed, monolayers were incubated with 1 μg/ml pertussis toxin for 12 h at 37° C. and Ca^2+ measurements were made as stated above.

[2] = test system: thioglycollate-elicited peritoneal macrophages; assay: IP3 formation in myo-[2-3H]inositol-labeled macrophages (Example 10); format: cell-based, mouse
Description: as §1, with “serum. Cell viability was determined by the trypan blue exclusion method and was consistently greater then 95%.” for “serum.”
Measurement of IP3 in apoE treated macrophage and effect of pertussis toxin. The formation of IP3 in myo-[2-^3H]inositol-labeled macrophages under various experimental conditions was quantified in accordance with known techniques. Macrophage were plated in 6 well plates (4×10^6 cells/well) and allowed to adhere at 37° C. for 2 h in a humidified 5% CO2 incubator. Medium was aspirated from the monolayers and RPMI 1640 medium containing 0.25% BSA and myo-[2-^3H]inositol (specific activity 10-20 Ci/mmol) was added to each well. […] Radioactivity was determined by placing aliquots in a liquid scintillation counter to determine radioactivity. […] The effect on IP3 formation was measured as described above.

[3] = test system: thioglycollate-elicited peritoneal macrophages; assay: Competition between apoE and apoE mimetic peptide: [Ca2+]i on sequential stimulation; format: cell-based, mouse
Description: Fura-2/AM loaded macrophages were incubated overnight, plated on glass cover slips, stimulated with one ligand, and changes in [Ca^2+]i quantified. Cells were then stimulated with second ligand and Ca^2+ measurements repeated.

[4] = test system: primary rat neuronal/glial cultures exposed to NMDA; assay: NMDA-induced LDH release in primary neuronal-glial cultures; format: cell-based; settings: peptide 0.3-10 μM, 100 μM NMDA
Description: (§2) Primary neuronal-glial cultures were prepared from fetal Sprague-Dawley rat brains at 18 days of gestation as previously described (Pearlstein et al., 1998). Brains were harvested from 10-15 pups and dissected to separate cortex from meninges and subcortical structures using anatomical landmarks. Cortices were pooled and minced into 2 mm^3 pieces in a buffered salt solution supplemented with 20 mM HEPES buffer, pH 7.4, containing 0.25% trypsin. The tissue was incubated for 20 minutes at 37° C. in a 5% CO2/95% room air atmosphere, and washed twice with ice-cold, glutamine-free minimum essential medium (MEM; Life Technologies) containing 15 mM glucose, 5% fetal bovine serum (GIBCO), 5% horse serum (GIBCO), and 1% DNase-I (Sigma Chemical Co., St. Louis, Mo., USA). Tissue pieces were dissociated by trituration through a fire-polished 9-inch Pasteur pipette (I.D.=0.7 mm). The resultant suspension was centrifuged at 50×g for 10 min, the supernatant discarded, and the pellet resuspended in growth medium (MEM supplemented with 15 mM glucose, 5% fetal bovine serum, and 5% horse serum). The dissociated cells were plated to achieve a confluent monolayer using 4×10^5 cells per well in poly-D-lysine coated, 24-well culture plates (Falcon 3047; Becton Dickinson Co., Lincoln Park, N.J., USA). Cultures were maintained undisturbed at 37° C. in a humidified 5% CO2/95% room air atmosphere for 13-16 days prior to use.
Mature cultures (13-16 days in vitro) were washed with Mg^2+-free buffered salt solution (BSS) containing 20 mM HEPES buffer (pH7.4) and 1.8 mM CaCl2, prior to the addition of NMDA. Following NMDA exposure, cultures were maintained for 30 minutes at 37° C. in a 5% CO2/95% air atmosphere. The medium containing NMDA was then removed and replaced with MEM supplemented with 20 mM glucose. The cultures were returned to the incubator for 24 h. In all experiments, cellular damage was assessed at 24 h after exposure to NMDA by measurement of the activity of lactate dehydrogenase (LDH) released into the medium as described below. The non-competitive NMDA receptor antagonist, MK-801 (Tocris Cookson Ins., St. Louis, Mo.) at a concentration of 10 μM was used as a positive control. Preliminary dose-response studies were performed to determine the concentration of NMDA (100 μM) required to effect a near-maximal LDH release (ED90) as used in the present study.
The effect of human recombinant apoE (Panverra, Madison, Wis.) on 100 μM NMDA-induced LDH release was assessed and the dose-response curve was obtained (apoE: 0.1-10 μM final concentration). ApoE3, the most common human isoform, was added to the cultures 30 minutes prior to and removed following NMDA exposure. The effect of apoE peptide (133-149) on NMDA (100 μM or 300 μM)-induced LDH release was next assessed and the dose-response curve was obtained in a separate set of sister cultures that were simultaneously treated under one of the following conditions: (1) various doses of peptide (0.3 μM, 1 μM, 3 μM, 6 μM, 10 μM final concentration) were added to the culture immediately prior to and removed at the end of NMDA exposure; (2) no peptide, NMDA exposure; (3) no peptide, no NMDA exposure; (4) no peptide, NMDA exposure with 10 μM MK-801 for 30 minutes. The effect of a scrambled control peptide on NMDA-induced LDH release was similarly assessed.
The effect of time of administration of apoE peptide (133-149) on NMDA-induced LDH release was assessed in a separate set of sister cultures that were simultaneously treated under one of following conditions: (1) peptide was added to the culture medium 24 h prior to and removed immediately before exposure to NMDA; (2) peptide was added immediately prior to and removed at the end of the NMDA exposure; (3) peptide was added immediately following the 30 minutes NMDA exposure; (4) no peptide, NMDA exposure; (5) no peptide, no NMDA exposure. […]

[5] = test system: primary rat neuronal/glial cultures exposed to NMDA; assay: NMDA-induced 45Ca uptake by primary neuronal-glial cultures; format: cell-based; settings: 6 μM peptide, 100 μM NMDA
Description: as §2
Cellular calcium uptake from the extracellular space was assessed using ^45CaCl2 (American Radiolabeled Chemicals, St. Louis, Mo.). After washing the cultures with Mg^2+-free BSS containing 20 mM HEPES buffer, 6 μM peptide or 10 μM MK-801 was added to each well prior to and removed at the end of 100 μM NMDA exposure. ^45Ca (0.28 μCi/ml, 0.9 μCi/well) was added to each well immediately prior to NMDA exposure. The cultures were returned to the incubator and maintained at 37° C. Twenty minutes later, the exposure medium was removed and each well was washed 3 times with ice-cold Mg^2+-free BSS containing 20 mM HEPES buffer. The cells were subsequently lysed by addition of 0.2% sodium dodecyl sulfate (SDS). An aliquot from each well was added to a liquid scintillation vial containing 10 ml Cytoscint™ (ICN, Biochemical Research Product, CA) and radioactivity was determined by scintillation counting and normalized to cell count.

| Substance | cells examined showing increase in [Ca2+]i [1] | concentration dependence of [Ca2+]i increase [1] | increase in [Ca2+]i levels compared to buffer [1] | [Ca2+]i level in treated cells, typical experiment ([1]; unstimulated cells 95.33±7.37 nM) | increase in IP3 levels [2] | concentration dependence of IP3 increase ([2]; stimulated 60 s) | [Ca2+]i response on repeated or sequential ligand exposure (desensitization) [3] | protection against NMDA toxicity (LDH release), dose response [4] | NMDA-induced calcium influx compared to NMDA alone [5] |
| --- | --- | --- | --- | --- | --- | --- | --- | --- | --- |
| apoE: Example 10: human recombinant apoE2 obtained commercially from Panvera Corp | 70-80% | dose-dependent | 2-4 fold | 180.25 ± 14.57 nM | 1.5-2.0 fold | dose-dependent | marked attenuation in [Ca^2+]i suggesting tachyphylaxis; also recorded: loss of [Ca^2+]i response to apoE addition following initial exposure to peptide | – | – |
| scrambled control peptide: Example 10: scrambled control of identical size and amino acid composition to the 20 amino acid ApoE mimetic peptide (Ac-LARKLRSRLVHLRLKLR-NH2) [reference compound] | – | – | no effect | – | – | – | No desensitization in calcium response | no protection was observed | no effect on calcium influx |
